Data as given in US10760110B2, “Antibiotic testing and screening system” (priority 2017, dated 2020).
Like-named read-outs stand apart in the source and are kept apart here.

Assays:
[1] = tested on: K. pneumoniae NVT1001 and its GyrA/ParC and ΔramR mutants; experiment: Etest MIC of quinolones, GyrA/ParC mutations and AcrAB-TolC overexpression (ΔramR) (Table 10); format: cell-based; details: Klebsiella pneumoniae
From the text: DNA fragments of the entire gyrA and parC sequences along with their flanking regions were amplified from K. pneumoniae strain NVT1001 using PCR with specific primer pairs and then cloned into the plasmid pUT-KB. The QuikChange site-directed mutagenesis kit (Stratagene) was used to generate mutations in the gyrA and parC genes in the plasmid using the methods described by the manufacturer. For homologous recombination, plasmids containing mutations in the gyrA or parC gene were transformed into E. coli S17-1 λpir^23 via electroporation and mobilized into K. pneumoniae strain NVT1001 via conjugation. Single-crossover strains were selected from BIND plates supplemented with kanamycin (50 mg/L), as the growth of non-K. pneumoniae contaminants is suppressed on BIND plates.^24 After the kanamycin-resistant transconjugants were selected, the insertion of plasmids was verified via PCR. After incubation in 20 mL BHI broth for 6 hours at 37° C. in the absence of kanamycin, the fully grown cultures were spread onto LB agar plates supplemented with 10% sucrose. After the double crossover occurred, the sucrose-resistant and kanamycin-susceptible colonies were selected, and the gene mutations were confirmed via PCR.
(§1) The MICs of antibiotics were determined using the Etest (Biodisk AB, Sweden) according to the manufacturer's instructions. The MICs from the Etest, which fall between standard two-fold dilutions, were rounded up to the next highest two-fold value. The MICs of ceftazidime and cefotaxime against K. pneumoniae NVT1001 harbouring the pACYC177 plasmid with blaOXA-48 were further determined using a broth microdilution test according to the recommendations of the CLSI,^25 and the results were interpreted according to the breakpoints established by the CLSI in 2017.^25 Meanwhile, due to the lack of CLSI breakpoints in 2016 and 2017, the results for cephalothin were interpreted according to the breakpoints established by the CLSI in 2015,^26 and the results for moxifloxacin were interpreted according to the breakpoints established by the EUCAST in 2017.^27

[2] = tested on: K. pneumoniae NVT1001 strains with QnrB, QnrS or AAC(6′)-Ib-cr plasmids; experiment: Etest MIC of quinolones, GyrA/ParC mutations, ΔramR and/or QnrB, QnrS or AAC(6′)-Ib-cr (Table 12); format: cell-based; details: Klebsiella pneumoniae
Description: DNA fragments of the resistance genes along with their flanking regions were amplified from clinical plasmids via PCR with specific primer pairs. The resulting PCR fragments were digested and then cloned into the plasmid pACYC177 or pACYC184. The resulting plasmids were then transformed into K. pneumoniae strain NVT1001 via electroporation. The recombinant bacteria were plated onto LB agar plates containing kanamycin (50 mg/L) or chloramphenicol (50 mg/L), and the presence of the cloned gene was confirmed via PCR and DNA sequencing.
as §1

[3] = AAC(6′)-Ib-cr on pACYC177, S83I mutant
[4] = AAC(6′)-Ib-cr on pACYC177, S83I/D87N/S80I mutant
[5] = AAC(6′)-Ib-cr on pACYC177, S83I/S80I mutant
[6] = AAC(6′)-Ib-cr on pACYC177, WT (NVT1001), read-out: MIC
[7] = AAC(6′)-Ib-cr on pACYC177, ΔramR mutant
[8] = AAC(6′)-Ib-cr on pACYC177, ΔramR/S83I mutant
[9] = AAC(6′)-Ib-cr on pACYC177, ΔramR/S83I/D87N/S80I mutant
[10] = AAC(6′)-Ib-cr on pACYC177, ΔramR/S83I/S80I mutant
[11] = QnrB on pACYC177, S83I/D87N/S80I mutant
[12] = QnrB on pACYC177, S83I/S80I mutant
[13] = QnrB on pACYC177, WT (NVT1001), read-out: MIC
[14] = QnrB on pACYC177, ΔramR/S83I mutant
[15] = QnrB on pACYC177, ΔramR/S83I/D87N/S80I mutant
[16] = QnrB on pACYC177, ΔramR/S83I/S80I mutant
[17] = QnrS on pACYC177, S83I/D87N/S80I mutant
[18] = QnrS on pACYC177, S83I/S80I mutant
[19] = QnrS on pACYC177, WT (NVT1001), read-out: MIC
[20] = QnrS on pACYC177, ΔramR/S83I mutant
[21] = QnrS on pACYC177, ΔramR/S83I/D87N/S80I mutant
[22] = QnrS on pACYC177, ΔramR/S83I/S80I mutant
[23] = no supplemental plasmid, S83I mutant
[24] = no supplemental plasmid, S83I/D87N/S80I mutant
[25] = no supplemental plasmid, S83I/S80I mutant
[26] = no supplemental plasmid, WT (NVT1001), read-out: MIC
[27] = no supplemental plasmid, ΔramR mutant
[28] = no supplemental plasmid, ΔramR/S83I mutant
[29] = no supplemental plasmid, ΔramR/S83I/D87N/S80I mutant
[30] = no supplemental plasmid, ΔramR/S83I/S80I mutant

Measured: MIC

CC1COc2c(N3CCN(C)CC3)c(F)cc3c(=O)c(C(=O)O)cn1c23 (stereo not shown) [Ofloxacin, ofloxacin]
4 µg/mL: [1]; S83I/S80I mutant | [1]; S83L/S80I mutant | [2]; [3] | [2]; [13] | [2]; [19] | [2]; [25]
> 32 µg/mL: [1]; ΔramR/S83I mutant | [1]; ΔramR/S83I/D87N/S80I mutant | [1]; ΔramR/S83I/S801 mutant | [2]; [8] | [2]; [9] | [2]; [10] | [2]; [11] | [2]; [12] | [2]; [14] | [2]; [15] | [2]; [16] | [2]; [17] | [2]; [18] | [2]; [20] | [2]; [21] | [2]; [22] | [2]; [28] | [2]; [29] | [2]; [30]
32 µg/mL: [1]; S83I/D87N/S80I mutant | [1]; S83L/D87N/S80I mutant | [2]; [4] | [2]; QnrB on pACYC177, ΔramR mutant | [2]; [24]
2 µg/mL: [1]; S83F mutant (GyrA S83F) | [1]; S83F/D87N mutant | [1]; S83F/S80I mutant | [1]; S83I mutant (GyrA S83I) | [1]; S83I/D87N mutant | [1]; S83L mutant (GyrA S83L) | [1]; S83L/D87N mutant | [1]; S83Y mutant (GyrA S83Y) | [1]; S83Y/D87N mutant | [1]; S83Y/S80I mutant | [1]; ΔramR mutant | [2]; [7] | [2]; [23] | [2]; [27]
8 µg/mL: [2]; [5] | [2]; QnrB on pACYC177, S83I mutant | [2]; QnrS on pACYC177, S83I mutant
1 µg/mL: [1]; D87N mutant (GyrA D87N) | [1]; D87N/S80I mutant
0.25 µg/mL: [1]; NVT1001, read-out: MIC | [1]; S80I mutant (ParC S80I) | [2]; [6] | [2]; [26]
16 µg/mL: [1]; S83F/D87N/S80I mutant | [1]; S83Y/D87N/S80I mutant | [2]; QnrS on pACYC177, ΔramR mutant

COc1c(N2C[C@@H]3CCCN[C@@H]3C2)c(F)cc2c(=O)c(C(=O)O)cn(C3CC3)c12 [Moxifloxacin, moxifloxacin]
2 µg/mL: [1]; S83L/S80I mutant | [2]; [13]
32 µg/mL: [1]; S83F/D87N/S80I mutant | [1]; S83L/D87N/S80I mutant | [1]; S83Y/D87N/S80I mutant
8 µg/mL: [1]; S83I/S80I mutant | [1]; ΔramR/S83I mutant | [2]; [5] | [2]; QnrB on pACYC177, S83I mutant | [2]; QnrS on pACYC177, S83I mutant | [2]; [25] | [2]; [28]
16 µg/mL: [2]; [8]
> 32 µg/mL: [1]; S83I/D87N/S80I mutant | [1]; ΔramR/S83I/D87N/S80I mutant | [1]; ΔramR/S83I/S801 mutant | [2]; [4] | [2]; [9] | [2]; [10] | [2]; [11] | [2]; [12] | [2]; QnrB on pACYC177, ΔramR mutant | [2]; [14] | [2]; [15] | [2]; [16] | [2]; [17] | [2]; [18] | [2]; QnrS on pACYC177, ΔramR mutant | [2]; [20] | [2]; [21] | [2]; [22] | [2]; [24] | [2]; [29] | [2]; [30]
0.125 µg/mL: [1]; NVT1001, read-out: MIC | [2]; [6] | [2]; [26]
1 µg/mL: [1]; D87N/S80I mutant | [1]; S83F/S80I mutant | [1]; S83I mutant (GyrA S83I) | [1]; S83I/D87N mutant | [1]; S83Y/S80I mutant | [1]; ΔramR mutant | [2]; [3] | [2]; [7] | [2]; [19] | [2]; [23] | [2]; [27]
0.5 µg/mL: [1]; D87N mutant (GyrA D87N) | [1]; S83F mutant (GyrA S83F) | [1]; S83F/D87N mutant | [1]; S83L mutant (GyrA S83L) | [1]; S83L/D87N mutant | [1]; S83Y mutant (GyrA S83Y) | [1]; S83Y/D87N mutant
0.25 µg/mL: [1]; S80I mutant (ParC S80I)
